The assay deals with L. donovani amastigotes in THP-1 macrophages, DAPI imaging, 72 h. Description: antileishmanial activity in infected macrophages – imaging, THP-1 host macrophages, single concentration (AID 977614).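 Further: signal is the parasite per host cell ratio from DAPI stained kinetoplasts and nuclei.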

Calls of active or inactive are those of the source.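 How the source made its calls: active means parasite count per well reduced by over 3 SD from the mean, with host cell number above 80% of untreated; inactive means the rest.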

The term AC50 denotes the midpoint of the concentration-response curve, whichever way the signal moves. With `O=C(C1CC1)N1C[C@H]2[C@@H](c3ccccc31)[C@H](CO)N2C(=O)c1ccccc1`, the AC50 was > 10 µM (inactive).

Take `C[C@@H]1CN([C@@H](C)CO)C(=O)CCCn2nncc2CO[C@@H]1CN(C)C(=O)c1ccc(N2CCN(C)CC2)cc1`: the AC50 was > 10 µM (inactive).

On to `C/C=C/c1ccc([C@H]2[C@@H](CNC(=O)NC(C)C)N(C(=O)C3CC3)[C@H]2CO)cc1`, for which the AC50 is > 10 µM (inactive).

Regarding `CCC(=O)N1[C@H](CN(CC)C(=O)c2cccc(F)c2)[C@H](c2ccccc2)[C@@H]1CO`, the AC50 was > 10 µM (inactive).

`O=C(C1CCOCC1)N1C[C@H]2[C@@H](c3ccccc31)[C@H](CO)N2C(=O)Cc1ccccn1`: the AC50 is > 10 µM (inactive).

As for `C[C@H]1CN([C@@H](C)CO)C(=O)CCCn2cc(nn2)CO[C@@H]1CN(C)Cc1ccccc1`, the AC50 was > 10 µM (inactive).

As to `C[C@H](CO)N1C[C@H](C)[C@H](CN(C)C(=O)c2ccc3ccn(C)c3c2)OCc2cnnn2CCCC1=O`, the AC50 was > 10 µM (inactive).

In the case of `CC(=O)N1[C@H](CO)[C@@H](c2ccccc2)[C@H]1CNC(=O)CN1CCOCC1`, the AC50 is > 10 µM (inactive).

Consider `CC(C)NC(=O)N1[C@H](CO)[C@@H](c2ccccc2)[C@H]1CN(C)C(=O)c1cccnc1`, for which the AC50 is > 10 µM (inactive).

For the compound `CC(=O)N1[C@H](CN(CC2CCC2)C(=O)CN(C)C)[C@@H](c2ccccc2)[C@@H]1CO`, the AC50 was > 10 µM (inactive).

Regarding `CCC(=O)N1[C@H](CO)[C@H](c2ccc(-c3cccc(OC)c3)cc2)[C@@H]1CNC(C)=O`, the AC50 was > 10 µM (inactive).

With `C[C@@H]1CN([C@@H](C)CO)C(=O)CCCn2nncc2CO[C@@H]1CN(C)Cc1ccc(C(=O)Nc2ccccc2N)cc1`, the AC50 is > 10 µM (inactive).

Regarding `C[C@@H]1CN([C@@H](C)CO)C(=O)CCCn2nncc2CO[C@@H]1CN(C)C(=O)c1ccc2ccn(C)c2c1`, the AC50 was > 10 µM (inactive).

`CC(C)CN(C[C@H]1N[C@H](CO)[C@@H]1c1ccccc1)C(=O)C1CCCCC1`: the AC50 is > 10 µM (inactive).

Take `C[C@H]1CN([C@@H](C)CO)C(=O)CCCn2nncc2CO[C@H]1CN(C)C(=O)Nc1ccc(-c2cccs2)cc1`: the AC50 is > 10 µM (inactive).

As to `O=S(=O)(c1ccc(F)cc1)N1C[C@@H]2[C@H](c3ccccc31)[C@@H](CO)N2Cc1ccccc1Cl`, the AC50 was > 10 µM (inactive).

In the case of `CN1C[C@@H]2[C@H](c3ccccc31)[C@H](CO)N2C(=O)C1CCOCC1`, the AC50 was > 10 µM (inactive).

Turning to `C[C@H](CO)N1C[C@H](C)[C@@H](CN(C)Cc2ccccc2)OCc2cn(nn2)CCCC1=O`, the AC50 is > 10 µM (inactive).

Regarding `C[C@@H]1CN([C@@H](C)CO)C(=O)CCCn2cc(nn2)CO[C@H]1CN(C)C(=O)c1ccc(N2CCN(C)CC2)cc1`, the AC50 was > 10 µM (inactive).

Take `CCCNC(=O)N(C)C[C@@H]1[C@@H](c2ccccc2)[C@H](CO)N1C(=O)c1ccccc1`: the AC50 is > 10 µM (inactive).

Regarding `CCNC[C@H]1[C@@H](c2ccccc2)[C@@H](CO)N1C(=O)Cc1ccccn1`, the AC50 is > 10 µM (inactive).

Consider `C[C@H](CO)N1C[C@H](C)[C@H](CN(C)C(=O)Nc2cccc(C(F)(F)F)c2)OCc2cn(nn2)CCCC1=O`, for which the AC50 was > 10 µM (inactive).

On to `COc1ccc(CN2[C@H](CO)[C@@H]3c4ccccc4N(C(=O)NC(C)C)C[C@@H]32)cc1`, for which the AC50 was > 10 µM (inactive).

On to `C[C@@H]1CN([C@@H](C)CO)C(=O)CCCn2cc(nn2)CO[C@H]1CN(C)C(=O)Nc1ccc2c(c1)OCO2`, for which the AC50 was > 10 µM (inactive).

Take `COCC(=O)N1[C@H](CO)[C@@H]2c3ccccc3N(C)C[C@@H]21`: the AC50 was > 10 µM (inactive).

Take `CCCC#Cc1ccc([C@H]2[C@@H](CO)N[C@@H]2CN(C(C)=O)C2CCCC2)cc1`: the AC50 was > 10 µM (inactive).

Take `CN(C[C@@H]1[C@H](c2ccccc2)[C@@H](CO)N1Cc1ccccn1)S(C)(=O)=O`: the AC50 was > 10 µM (inactive).

`CN1C[C@H]2[C@@H](c3ccccc31)[C@H](CO)N2Cc1ccccc1Cl`: the AC50 is > 10 µM (inactive).

Consider `COCCN(C[C@@H]1[C@@H](c2ccccc2)[C@@H](CO)N1C(C)=O)C(=O)c1cccnc1`, for which the AC50 was > 10 µM (inactive).

With `Cc1noc(C)c1NC(=O)N(C)C[C@@H]1OCc2cnnn2CCCC(=O)N([C@H](C)CO)C[C@H]1C`, the AC50 was > 10 µM (inactive).

For the compound `CC(C)N(C[C@H]1[C@H](c2ccccc2)[C@@H](CO)N1S(C)(=O)=O)C(=O)CN(C)C`, the AC50 is > 10 µM (inactive).

With `COc1ccccc1CN1[C@@H]2CN(C(=O)c3cccnc3)c3ccccc3[C@@H]2[C@@H]1CO`, the AC50 is > 10 µM (inactive).

On to `CNC[C@H]1OCc2cnnn2CCCC(=O)N([C@H](C)CO)C[C@H]1C`, for which the AC50 was > 10 µM (inactive).

For `COc1ccccc1S(=O)(=O)N(C)C[C@@H]1OCc2cn(nn2)CCCC(=O)N([C@H](C)CO)C[C@@H]1C`, the AC50 was > 10 µM (inactive).

As for `Cc1noc(C)c1NC(=O)N(C)C[C@H]1OCc2cnnn2CCCC(=O)N([C@H](C)CO)C[C@H]1C`, the AC50 is > 10 µM (inactive).

On to `C/C=C/c1ccc([C@H]2[C@@H](CO)N(S(=O)(=O)CC)[C@H]2CN(C)C(=O)CC)cc1`, for which the AC50 was > 10 µM (inactive).

Consider `O=C(Cc1ccccc1)N1C[C@H]2[C@@H](c3ccccc31)[C@H](CO)N2S(=O)(=O)c1ccccc1`, for which the AC50 is > 10 µM (inactive).

As for `C[C@H]1CN([C@@H](C)CO)C(=O)CCCn2nncc2CO[C@H]1CN(C)C(=O)c1ccc(N2CCN(C)CC2)cc1`, the AC50 is > 10 µM (inactive).

As for `C[C@@H]1CN([C@H](C)CO)C(=O)CCCn2cc(nn2)CO[C@H]1CN(C)S(=O)(=O)c1ccc(-n2cccn2)cc1`, the AC50 was > 10 µM (inactive).

On to `O=C(c1ccccc1F)N1C[C@H]2[C@@H](c3ccccc31)[C@@H](CO)N2C(=O)Nc1ccccc1`, for which the AC50 was > 10 µM (inactive).

For `C[C@H]1CN([C@@H](C)CO)C(=O)CCCn2cc(nn2)CO[C@@H]1CN(C)C(=O)Nc1cccc2ccccc12`, the AC50 is > 10 µM (inactive).

With `COCC(=O)N1[C@@H](CO)[C@@H]2c3ccccc3NC[C@@H]21`, the AC50 was > 10 µM (inactive).

Take `C[C@H](CO)N1C[C@H](C)[C@H](CN(C)C(=O)Nc2ccc(-c3cccs3)cc2)OCc2cnnn2CCCC1=O`: the AC50 was > 10 µM (inactive).

Turning to `C/C=C/c1ccc([C@H]2[C@@H](CO)N(S(=O)(=O)CC)[C@@H]2CN(C)C(=O)CC)cc1`, the AC50 was > 10 µM (inactive).

With `OC[C@@H]1[C@H]2c3ccccc3NC[C@H]2N1CC1CCOCC1`, the AC50 is > 10 µM (inactive).

As for `C[C@@H]1CN([C@H](C)CO)C(=O)CCCn2cc(nn2)CO[C@@H]1CN(C)C(=O)Nc1cccc(C(F)(F)F)c1`, the AC50 was > 10 µM (inactive).

In the case of `CC(=O)N(Cc1cccc(F)c1)C[C@@H]1[C@@H](c2ccccc2)[C@@H](CO)N1C(C)=O`, the AC50 is > 10 µM (inactive).

`O=C(NC[C@H]1N[C@H](CO)[C@H]1c1ccccc1)c1ccccc1F`: the AC50 was > 10 µM (inactive).

In the case of `C[C@H](CO)N1C[C@H](C)[C@H](CN(C)Cc2ccccc2)OCc2cn(nn2)CCCC1=O`, the AC50 is > 10 µM (inactive).

Regarding `OC[C@@H]1[C@@H]2c3ccccc3NC[C@@H]2N1Cc1ccccc1Cl`, the AC50 was > 10 µM (inactive).

With `C[C@H](CO)N1C[C@H](C)[C@@H](CN(C)C(=O)Nc2ccccc2C(F)(F)F)OCc2cnnn2CCCC1=O`, the AC50 is > 10 µM (inactive).

As to `COc1ccc(CN2[C@H](CO)[C@H]3c4ccccc4NC[C@H]32)cc1`, the AC50 is > 10 µM (inactive).

In the case of `CC(C)NC(=O)N1[C@@H]2CN(C)c3ccccc3[C@@H]2[C@@H]1CO`, the AC50 was > 10 µM (inactive).

`COc1ccccc1S(=O)(=O)N(C)C[C@H]1OCc2cn(nn2)CCCC(=O)N([C@@H](C)CO)C[C@H]1C`: the AC50 is > 10 µM (inactive).

In the case of `CCCC(=O)N1C[C@H]2[C@@H](c3ccccc31)[C@@H](CO)N2Cc1cocn1`, the AC50 is > 10 µM (inactive).

For the compound `COCC(=O)N1[C@@H]2CNc3ccccc3[C@@H]2[C@@H]1CO`, the AC50 was > 10 µM (inactive).

As for `CN1[C@@H]2CN(C(=O)C3CCCCC3)c3ccccc3[C@@H]2[C@@H]1CO`, the AC50 is > 10 µM (inactive).

Regarding `C[C@@H]1CN([C@H](C)CO)C(=O)CCCn2nncc2CO[C@H]1CN(C)CC1CCCCC1`, the AC50 is > 10 µM (inactive).

As to `CC(C)NC(=O)N1[C@H](CO)[C@H]2c3ccccc3NC[C@H]21`, the AC50 is > 10 µM (inactive).

`CN(C)CC(=O)N1[C@@H](CO)[C@@H]2c3ccccc3N(C(=O)Cc3ccccc3)C[C@@H]21`: the AC50 is > 10 µM (inactive).

As to `COc1cccc(NC(=O)N2[C@@H](CO)[C@H](c3ccccc3)[C@@H]2CNCC(C)C)c1`, the AC50 is > 10 µM (inactive).

`Cc1cccc(S(=O)(=O)N2C[C@@H]3[C@H](c4ccccc42)[C@H](CO)N3Cc2ccc3c(c2)OCO3)c1`: the AC50 was > 10 µM (inactive).

As for `C[C@H](CO)N1C[C@H](C)[C@@H](CN(C)Cc2ccc3c(c2)OCCN3C)OCc2cnnn2CCCC1=O`, the AC50 was > 10 µM (inactive).

For the compound `O=C(CC1CC1)N1[C@@H]2CN(S(=O)(=O)c3ccccc3F)c3ccccc3[C@@H]2[C@@H]1CO`, the AC50 was > 10 µM (inactive).

Consider `CC(C)N(C[C@H]1[C@@H](c2ccccc2)[C@@H](CO)N1CC1CC1)C(=O)C1CCC1`, for which the AC50 is > 10 µM (inactive).

Take `C[C@H](CO)N1C[C@H](C)[C@@H](CN(C)Cc2ccc(C(=O)Nc3ccccc3N)cc2)OCc2cnnn2CCCC1=O`: the AC50 is > 10 µM (inactive).

For `C[C@@H]1CN([C@@H](C)CO)C(=O)CCCn2cc(nn2)CO[C@H]1CN(C)S(=O)(=O)c1cccc(C#N)c1`, the AC50 was > 10 µM (inactive).

For the compound `CCS(=O)(=O)N1[C@H](CO)[C@H](c2ccccc2)[C@H]1CN(C(C)=O)C1CCCC1`, the AC50 was > 10 µM (inactive).

In the case of `CC(=O)N1[C@@H](CO)[C@@H](c2ccccc2)[C@@H]1CNC(=O)CN1CCOCC1`, the AC50 is > 10 µM (inactive).

As to `CC(=O)N1[C@H](CO)[C@@H](c2ccc(C3=CCCCC3)cc2)[C@@H]1CNC(=O)CN(C)C`, the AC50 was > 10 µM (inactive).

The values above are taken from PubChem BioAssay AID977614 (Broad Institute, 2014).
